Measured values: patent US11510896B2, “Antiviral compositions for the treatment of infections linked to coronaviruses” (priority 2016, dated 2022)

What was measured:
[1] = test system: MERS-CoV strain France-UAE/1612/2013; test: microbe, parasite or virus in culture; assay type: cell-based, MERS-CoV coronavirus; details: for IC50: Middle East respiratory syndrome-related coronavirus, Vero C1008, 24 h, read-out: IC50 (dose necessary to obtain a 50% viral production inhibition)
horses = horses versus ruminants; cited from earlier work

Row | Compound | reduction of the infectious titres with respect to the control ([1]; 12.5 μM) [%] | IC50 [1] [nM] | reduction of the infectious titres with respect to the control ([1]; 6 μM) [%] | LD50 in horses, times less than in ruminants (horses) [times]
1 | COc1ccc2cc3[n+](cc2c1OC)CCc1cc2c(cc1-3)OCO2 [berberine, Berberine] | 78.4 | 3800 | – | –
2 | CC[C@@]1([C@@H]2O[C@@H]([C@H]3O[C@@](O)(CO)[C@H](C)C[C@@H]3C)C[C@@H]2C)CC[C@H]([C@]2(C)CC[C@]3(C[C@H](O)[C@@H](C)[C@@H]([C@@H](C)[C@@H](OC)[C@H](C)C(=O)O)O3)O2)O1 [monensin, Monensin] | – | 1250 | 97.8 | 100
